Reference: patent US9439854B2, “Liquid pharmaceutical formulations of palonosetron” (Helsinn Healthcare SA, priority 2003, dated 2016)

What was measured:
[1] = physical and chemical stability of palonosetron HCl admixed with dexamethasone; type: physicochemical; conditions: palonosetron HCl 5 or 25 μg/mL with dexamethasone 0.2, 0.4 or 0.33 mg/mL in 5% dextrose or 0.9% sodium chloride; 14 days at 4° C., 48 hours at 23° C.
Procedure: The physical and chemical stability of palonosetron HCl 0.25 mg admixed with dexamethasone (as sodium phosphate) 10 mg or 20 mg in 5% dextrose injection or 0.9% sodium chloride injection in polyvinyl chloride (PVC) minibags, and also admixed with dexamethasone (as sodium phosphate) 3.3 mg in 5% dextrose injection or 0.9% sodium chloride injection in polypropylene syringes at 4° C. in the dark for 14 days and at 23° C. exposed to normal laboratory fluorescent light over 48 hours, was studied. Test samples of palonosetron HCl 5 μg/mL with dexamethasone (as sodium phosphate) 0.2 mg/mL and also 0.4 mg/mL were prepared in polyvinyl chloride (PVC) minibags of each infusion solution. Additionally, palonosetron HCl 25 μg/mL with dexamethasone (as sodium phosphate) 0.33 mg/mL in each infusion solution were prepared as 10 mL of test solution in 20-mL polypropylene syringes. […] Physical stability was assessed using visual observation in normal room light and using a high-intensity monodirectional light beam. In addition, turbidity and particle content were measured electronically. Chemical stability of the drug was evaluated by using a stability-indicating high performance liquid chromatographic (HPLC) analytical technique.

[2] = effect of pH on stability of formulations containing palonosetron hydrochloride at 80° C.; type: physicochemical; conditions: pH 2.0, 5.0, 7.4 and 10.0 tested
Procedure: A study was conducted to determine the effect of pH on formulations containing palonosetron hydrochloride, measuring the stability at 80° C. at pH 2.0, 5.0, 7.4, and 10.0.

[3] = formulation optimization study (concentration ranges, 24 lots); type: physicochemical; conditions: 0.05 mg/mL to 5.0 mg/mL; citrate buffer 0 to 80 mM; EDTA 0 to 0.10%
Procedure: A formulation optimization study was performed using an experimental design software. Twenty-four lots of drug product were analyzed to investigate the appropriate concentration ranges for palonosetron hydrochloride (0.05 mg/mL to 5.0 mg/mL), citrate buffer (0 to 80 mM) and EDTA (0 to 0.10%).

[4] = physical and chemical stability of palonosetron HCl in infusion solutions (without dexamethasone); type: physicochemical; conditions: 5 and 30 μg/mL in 4 infusion solutions, PVC bags; 14 days at 4° C. in the dark, 48 hours at 23° C. under fluorescent light
Procedure: The physical and chemical stability of palonosetron HCl was studies in concentrations of 5 μg/mL and 30 μg/mL in 5% dextrose injection, 0.9% sodium chloride injection, 5% dextrose in 0.45% sodium chloride injection, and dextrose 5% in lactated Ringer's injection. The admixtures were evaluated over 14 days at 4° C. in the dark and for 48 hours at 23° C. under fluorescent light. Test samples of palonosetron HCl were prepared in polyvinyl chloride (PVC) bags of the infusion solutions at concentrations of 5 and 30 μg/mL. Evaluations for physical and chemical stability were performed on samples taken initially and after 1, 3, 5, 7, and 14 days of storage at 4° C. and after 1, 4, 24, and 48 hours at 23° C. Physical stability was assessed using visual observation in normal room light and using a high-intensity monodirectional light beam. In addition, turbidity and particle content were measured electronically. Chemical stability of the drug was evaluated by using a stability-indicating high performance liquid chromatographic (HPLC) analytical technique.

[5] = clinical investigations; cited from earlier work
[6] = target: T1, 5-HT3 receptor (Homo sapiens, UniProt P46098); conditions: clinical investigations; cited from earlier work
T1 sequence (P46098 24-478): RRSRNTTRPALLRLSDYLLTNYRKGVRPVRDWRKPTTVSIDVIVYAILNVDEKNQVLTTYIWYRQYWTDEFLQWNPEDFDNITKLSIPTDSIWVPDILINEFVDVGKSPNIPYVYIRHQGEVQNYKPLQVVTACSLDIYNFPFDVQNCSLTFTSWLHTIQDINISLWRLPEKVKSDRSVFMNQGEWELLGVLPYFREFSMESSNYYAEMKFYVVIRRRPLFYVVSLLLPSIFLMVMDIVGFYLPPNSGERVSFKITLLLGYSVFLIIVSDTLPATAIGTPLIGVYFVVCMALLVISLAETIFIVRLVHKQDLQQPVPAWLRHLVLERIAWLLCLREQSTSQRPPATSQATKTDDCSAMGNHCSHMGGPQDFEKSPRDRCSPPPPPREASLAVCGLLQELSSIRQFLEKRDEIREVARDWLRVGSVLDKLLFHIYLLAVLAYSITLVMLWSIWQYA

For `C[C@@H]1C[C@H]2[C@@H]3CCC4=CC(=O)C=C[C@]4(C)[C@@]3(F)[C@@H](O)C[C@]2(C)[C@@]1(O)C(=O)CO` [dexamethasone], the “chemical stability (loss of drug, HPLC)” value [1] was “little or no loss”.
With `Cl.O=C1c2cccc3c2[C@H](CCC3)CN1[C@@H]1CN2CCC1CC2` [palonosetron hydrochloride] the “physical compatibility (visual, turbidity, particle content)” value [1] was “physically compatible throughout the study”, the “pH of greatest stability” value [2] was “most stable at pH 5.0” and the “chemical stability as a function of palonosetron concentration” value [3] was “greatest stability seen at the lowest palonosetron concentrations”. The “chemical stability (loss of drug, HPLC)” value [4] was “little or no loss” and the “physical stability (visual, turbidity, particle content)” value [4] was “physically stable throughout the study”.
In the case of `O=C1c2cccc3c2[C@H](CCC3)CN1[C@@H]1CN2CCC1CC2` [palonosetron, (3aS)-2,3,3a,4,5,6-Hexahydro-2-[(S)-1-Azabicyclo[2.2.2]oct-3-yl]2,3,3a,4,5,6-hexahydro-1-oxo-1Hbenz[de]isoquinoline], the half-life [5] is listed as “about 40 hours”, the “potency relative to most existing 5-HT3 receptor antagonists” value [6] is listed as “an order of magnitude more potent than most existing 5-HT3 receptor antagonists” and the “reduction of delayed-onset nausea induced by chemotherapeutic agents” value [6] is listed as “effective to reduce delayed-onset nausea”.
